Data taken from patent publication US20080221161A1, “HETEROCYCLIC MODULATORS OF TGR5 FOR TREATMENT OF DISEASE” (KALYPSYS, INC., priority 2007, published 2008).

Target: T1, human TGR5 (Homo sapiens, UniProt Q8TDU6)
T1 construct: expressed in transfected cells; host or cells: HEK-293 cells, stably transfected (pcDNA 3.1, Fugene6, geneticin selection)
T1 sequence (Q8TDU6 1-330): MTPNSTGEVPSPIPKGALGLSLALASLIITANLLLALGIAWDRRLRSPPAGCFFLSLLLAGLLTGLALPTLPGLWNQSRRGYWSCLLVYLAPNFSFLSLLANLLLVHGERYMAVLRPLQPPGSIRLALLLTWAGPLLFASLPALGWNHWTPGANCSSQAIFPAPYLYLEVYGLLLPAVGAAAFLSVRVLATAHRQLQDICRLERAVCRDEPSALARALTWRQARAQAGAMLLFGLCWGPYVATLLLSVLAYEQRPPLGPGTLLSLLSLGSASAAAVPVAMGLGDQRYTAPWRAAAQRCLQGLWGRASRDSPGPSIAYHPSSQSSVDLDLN
Experiment: cAMP production assay in HEK293-TGR5 cells
Format: cell-based
Conditions: HEK293 cells stably expressing human TGR5; 30 minutes stimulation; LANCE cAMP TR-FRET; read-out: cAMP Production in 293-TGR5 Cells EC50
Description: HEK293 cells stably expressing TGR5 (HEK293-TGR5) were established by stably transfecting HEK-293 cells with an expression vector (pcDNA 3.1, Invetrogen) inserted with human TGR5 cDNA using Fugene6 (Roche, Indianapolis, Ind.) according to conventional methods. Cells were grown in DMEM (invitrogen, Carlsbad, Calif.) supplemented with 10% FBS, 1% penicillin/streptomycin under geneticin selection. The presence of TGR5 transcripts in these cells was confirmed using branched DNA (bDNA, Genospectra, Inc., Fremont Calif.) following the manufacturer's protocol and using specific probes for human TGR5. cAMP production assay was performed in high throughput 1536 well format using LANCE cAMP detection kit (Perkin Elmer Inc., Boston, Mass.) according to the manufacturer's protocol. Briefly, HEK293-TGR5 cells were harvested using non-enzymatic cell dissociation buffer (Invitrogen, Carlsbad, Calif.) and suspended in DMEM supplemented with 0.1% FBS at a density of 800,000 cells/ml. Alexa antibody was added to the cell suspension, and 4 ul of the mixture was dispensed in white opaque tissue culture treated Greiner 1536 well plates (USA Scientific, Inc., Ocala, Fla.). After an overnight incubation at 37C in an atmosphere of 10% CO2 and 95% humidity, 1 ul of 5 mM IBMX (Sigma, St. Louis, Mo.) solution in DMEM was dispensed for a final concentration of 1 mM. Cells were then stimulated with test compounds for 30 minutes, after which time 5 ul of detection reagent was added and incubated for 1-7 hrs at room temperature. TR-FRET signal was detected using the Viewlux (Perkin Elmer Inc., Boston Mass.). EC50 values were determined using Graph Pad Prizm analysis (GraphPad Software, Inc).

Row | Compound | EC50 [µM]
1 | COc1ccc2cc(CNCc3ccc(C(F)(F)F)cc3)c(-c3ccoc3)nc2c1 [Example 90, 1-(2-(Furan-3-yl)-7-methoxyquinolin-3-yl)-N-(4-(trifluoromethyl)benzyl)methanamine] | > 10
2 | COc1ccc2cc(CNCCc3c[nH]c4ccc(O)cc34)c(-c3ccncc3)nc2c1 [Example 93, 3-(2-((7-Methoxy-2-(pyridin-4-yl)quinolin-3-yl)methylamino)ethyl)-1H-indol-5-ol] | > 10
3 | COc1ccc2cc(CNCc3ccc(C(F)(F)F)cc3)c(Sc3ccncc3)nc2c1 [Example 94, 1-(7-Methoxy-2-(pyridin-4-ylthio)quinolin-3-yl)-N-(4-(trifluoromethyl)benzyl)methanamine] | > 10
4 | COc1ccc2cc(CNCCc3ccc(Cl)cc3)c(Sc3ccncc3)nc2c1 [Example 95, 2-(4-Chlorophenyl)-N-((7-methoxy-2-(pyridin-4-ylthio)quinolin-3-yl)methyl)ethanamine] | > 10
5 | COc1ccc2cc(CCNCCc3ccc(Br)cc3)c(-c3ccsc3)nc2c1 [Example 102, N-(4-bromophenethyl)-2-(7-methoxy-2-(thiophen-3-yl)quinolin-3-yl)ethanamine] | > 10
6 | Oc1ccc2cc(CNCCc3ccc(Br)cc3)c(-c3ccco3)nc2c1 [Example 103, 3-((4-Bromophenethylamino)methyl)-2-(furan-2-yl)quinolin-7-ol] | > 10
7 | Oc1ccc2cc(CCNCCc3ccc(Br)cc3)c(-c3ccsc3)nc2c1 [Example 104, 3-(2-(4-Bromophenethylamino)ethyl)-2-(thiophen-3-yl)quinolin-7-ol] | > 10
8 | COc1ccc2cc(CCNCc3ccc(C(F)(F)F)cc3)c(-c3ccsc3)nc2c1 [Example 106, 2-(7-Methoxy-2-(thiophen-3-yl)quinolin-3-yl)-N-(4-(trifluoromethyl)benzyl)ethanamine] | > 10
9 | Oc1ccc2cc(CCNCc3ccc(C(F)(F)F)cc3)c(-c3ccsc3)nc2c1 [Example 107, 2-(Thiophen-3-yl)-3-(2-(4-(trifluoromethyl)benzylamino)ethyl)quinolin-7-ol] | > 10
10 | Oc1ccc2cc(CNCCc3ccc(Br)cc3)c(-c3cccs3)nc2c1 [Example 108, 3-((4-Bromophenethylamino)methyl)-2-(thiophen-2-yl)quinolin-7-ol] | > 10
11 | Oc1ccc2cc(CNCCc3ccc(Br)cc3)c(-c3ccoc3)nc2c1 [Example 109, 3-((4-Bromophenethylamino)methyl)-2-(furan-3-yl)quinolin-7-ol] | > 10
12 | Oc1ccc2nc(-c3ccsc3)c(CNCc3ccc(C(F)(F)F)cc3)cc2c1 [Example 111, 2-(Thiophen-3-yl)-3-((4-(trifluoromethyl)benzylamino)methyl)quinolin-6-ol] | > 10
13 | COc1ccc2cc(NCc3ccc(C(F)(F)F)cc3)c(-c3ccsc3)nc2c1 [Example 115, 7-Methoxy-2-(thiophen-3-yl)-N-(4-(trifluoromethyl)benzyl)quinolin-3-amine] | > 10
14 | COc1ccc2cc(CNCCc3ccc(Cl)cc3)c(-c3ccoc3)nc2c1 [Example 117, 2-(4-Chlorophenyl)-N-((2-(furan-3-yl)-7-methoxyquinolin-3-yl)methyl)ethanamine] | > 10
15 | Oc1ccc2cc(CNCCc3ccc(Cl)cc3)c(-c3ccoc3)nc2c1 [Example 118, 3-((4-Chlorophenethylamino)methyl)-2-(furan-3-yl)quinolin-7-ol] | > 10
16 | Cc1c(CNCCc2ccc(Br)cc2)c(-c2ccsc2)nc2cc(O)ccc12 [Example 120, 3-((4-Bromophenethylamino)methyl)-4-methyl-2-(thiophen-3-yl)quinolin-7-ol] | > 10

Results, then the molecule that gave them:

Row | EC50 [µM] | Compound
17 | < 10 | COc1ccc2cc(CNCCc3cccnc3)c(-c3ccncc3)nc2c1 [Example 76, N-((7-Methoxy-2-(pyridin-4-yl)quinolin-3-yl)methyl)-2-(pyridin-3-yl)ethanamine]
18 | > 10 | COc1ccc2cc(CNCc3ccc(C(F)(F)F)cc3)c(-c3ccco3)nc2c1 [Example 77, 1-(2-(Furan-2-yl)-7-methoxyquinolin-3-yl)-N-(4-(trifluoromethyl)benzyl)methanamine]
19 | < 10 | COc1ccc2cc(CNCc3ccco3)c(-c3ccsc3)nc2c1 [Example 78, 1-(Furan-2-yl)-N-((7-methoxy-2-(thiophen-3-yl)quinolin-3-yl)methyl)methanamine]
20 | < 10 | Oc1ccc2cc(CNCc3ccc(C(F)(F)F)cc3)c(-c3ccsc3)nc2c1 [Example 79, 2-(Thiophen-3-yl)-3-((4-(trifluoromethyl)benzylamino)methyl)quinolin-7-ol]
21 | > 10 | COc1ccc2cc(CNCCc3ccccn3)c(-c3ccncc3)nc2c1 [Example 80, N-((7-Methoxy-2-(pyridin-4-yl)quinolin-3-yl)methyl)-2-(pyridin-2-yl)ethanamine]
22 | < 10 | COc1ccc2cc(CNCCCc3ccccc3)c(-c3ccncc3)nc2c1 [Example 81, N-((7-Methoxy-2-(pyridin-4-yl)quinolin-3-yl)methyl)-3-phenylpropan-1-amine]
23 | < 10 | COc1ccc2cc(CNCc3ccc(C(F)(F)F)cc3)c(Oc3cccnc3)nc2c1 [Example 83, 1-(7-methoxy-2-(pyridin-3-yloxy)quinolin-3-yl)-N-(4-(trifluoromethyl)benzyl)methanamine]
24 | < 10 | COc1ccc2cc(CN[C@H](C)c3ccc(C)cc3)c(-c3ccncc3)nc2c1 [Example 85, (R)—N-((7-Methoxy-2-(pyridin-4-yl)quinolin-3-yl)methyl)-1-p-tolylethanamine]
25 | < 10 | COc1ccc2cc(CNCc3ccc(F)cc3F)c(-c3ccncc3)nc2c1 [Example 87, N-(2,4-Difluorobenzyl)-1-(7-methoxy-2-(pyridin-4-yl)quinolin-3-yl)methanamine]
26 | > 10 | CN(C)c1ccc2cc(CNCc3ccc(C(F)(F)F)cc3)c(-c3ccsc3)nc2c1 [Example 88, N,N-Dimethyl-2-(thiophen-3-yl)-3-((4-(trifluoromethyl)benzylamino)methyl)quinolin-7-amine]
27 | > 10 | CN(C)c1ccc2cc(CNCCc3ccc(Br)cc3)c(-c3ccsc3)nc2c1 [Example 89, 3-((4-Bromophenethylamino)methyl)-N,N-dimethyl-2-(thiophen-3-yl)quinolin-7-amine]
28 | < 10 | COc1ccc2cc(CNCc3ccc(F)c(Cl)c3)c(-c3ccncc3)nc2c1 [Example 92, N-(3-Chloro-4-fluorobenzyl)-1-(7-methoxy-2-(pyridin-4-yl)quinolin-3-yl)methanamine]
29 | < 10 | Oc1ccc2cc(CNCCc3ccc(Br)cc3)c(-c3ccncc3)nc2c1 [Example 96, 3-((4-Bromophenethylamino)methyl)-2-(pyridin-4-yl)quinolin-7-ol]
30 | < 10 | Oc1ccc2cc(CNCCc3ccc(Br)cc3)c(-c3ccccc3)nc2c1 [Example 100, 3-((4-Bromophenethylamino)methyl)-2-phenylquinolin-7-ol]
31 | < 10 | Oc1ccc2cc(CNCCc3ccc(Cl)c(Cl)c3)c(-c3ccsc3)nc2c1 [Example 101, 3-((3,4-Dichlorophenethylamino)methyl)-2-(thiophen-3-yl)quinolin-7-ol]
32 | < 10 | Oc1ccc2nc(-c3ccsc3)c(CNCCc3ccc(Cl)cc3)cc2c1 [Example 105, 3-((4-Chlorophenethylamino)methyl)-2-(thiophen-3-yl)quinolin-6-ol]
33 | < 10 | Sc1ccc2cc(CNCCc3ccc(Br)cc3)c(-c3ccsc3)nc2c1 [Example 114, 3-((4-Bromophenethylamino)methyl)-2-(thiophen-3-yl)quinoline-7-thiol]
34 | < 10 | COc1ccc2cc(NCCc3ccc(Br)cc3)c(-c3ccsc3)nc2c1 [Example 116, N-(4-Bromophenethyl)-7-methoxy-2-(thiophen-3-yl)quinolin-3-amine]
35 | < 10 | COc1ccc2cc(CNC(=O)COc3cccc4ncccc34)c(-c3ccsc3)nc2c1 [Example 119, N-((7-Methoxy-2-(thiophen-3-yl)quinolin-3-yl)methyl)-2-(quinolin-5-yloxy)acetamide]
36 | < 10 | COc1ccc2cc(CNCCOc3cccc4ncccc34)c(-c3ccsc3)nc2c1 [Example 121, N-((7-Methoxy-2-(thiophen-3-yl)quinolin-3-yl)methyl)-2-(quinolin-5-yloxy)ethanamine]
